In patent publication US4990499A, “Anti-herpes simplex virus activity of 5-alkoxymethyl-2'-deoxycytidimes and their 5-monophosphates” (priority 1989, dated 1991):
Entries after “also recorded” stand apart in the source; their conditions may differ.

Assays:
in vitro = details: monkey, vero cells
Method: The survival and viability of Vero cells grown in the presence of 2'-deoxyguanosine, H4 dUrd and deoxyguanosine+H4 dUrd was determined.

HSV-1, KOS [1] = experiment: HSV-1 KOS infectivity (virus yield) in Vero cells after removal of drugs; format: cell-based, Herpes simplex virus type 1; details: up to 2120 μM (highest concentration tested)
Method: Vero cells were infected with HSV-1, KOS strain and then samples of the infected cells were treated with MMdCyd in various quantities and with MMdCyd in various quantities together with 530 μM of H4 dUrd. Cells were washed twice with 0.4 ml of MEM to remove residual drug, overlaid with growth medium and incubated for 72 h. The virus was harvested by two cycles of freezing and thawing. The culture fluid from each treatment was pooled and assayed for virus yield.
^b H4 dUrd 530 μM (125 μg/ml) was added along with MMdCyd.

[2] = test system: Deoxynucleoside Triphosphate (dNTP) Pools in Uninfected Vero Cells; experiment: Deoxynucleoside triphosphate (dNTP) pools in uninfected (mock-infected) Vero cells; format: cell-based; details: Table 7, uninfected Vero cells, treatment 7 hours, ± S.E.
Method: Vero cells were treated with MMdCyd, H4 dUrd and MMdCyd+H4 dUrd. The cells were then assayed for the presence of deoxynucleoside triphosphates. Untreated Vero cells were also assayed for the presence of deoxynucleoside triphosphates, to provide a control.
^a Cells were mock infected for one hour. Different treatments were
^b Values are means of at least two assays of triplicate cell
(§1) Vero cells and HSV-infected Vero cells were treated with dGUO and dGUO and H4 dUrd. The cells were then assayed for the presence of deoxynucleoside triphosphates. Untreated Vero cells were also assayed for the presence of deoxynucleoside triphophate to provide a control.
Vero cells were treated with N-methyl-MMdCyd. The cells were then assayed for dNTP pools.

HSV-1, KOS [3] = experiment: HSV-1 KOS infectivity in Vero cells prior to washing of drugs; format: cell-based, Herpes simplex virus type 1; details: at less than 2120 μM (500 μg/ml)
Method: Vero cells were infected with HSV-1, KOS strain and then treated with MMdCyd in various quantities, and also with MMdCyd in various quantities together with a constant amount of H4 dUrd. The virus infectivity was observed and the results are given in Table 5 and are shown graphically in FIG. 3.
^a Virus infectivity was scored using following parameters: rounding
of cells, plaque formation and loss of monolayer structure.
^b Concentration of H4 dUrd used was 530 μM (125 μg/ml).

[4] = test system: Deoxynucleoside Triphosphate (dNTP) Pools in Vero Cells Infected with Herpes Simplex Virus Type 1; experiment: Deoxynucleoside triphosphate (dNTP) pools in HSV-1 infected Vero cells; format: cell-based
Method: Example 9 was repeated, except that the Vero cells subjected to the treatment had all been infected with HSV-1 KOS strain prior to the treatment.
^a Cells were infected with 10 PFU/cell of HSV1 KOS strain for one
hour. Treatments were given for seven hours.
^a Cells were infected with 10 PFU/cell of HSV1, KOS strain after
^b H4 dUrd in MEM was added immediately after adsorption and
^c H4 dUrd in MEM was added immediately after adsorption and
as §1
^c Cells were infected with 10 PFU/cell of HSV1 strain KOS for one

HSV-1 DNA Polymerase [5] = molecular target: T1, HSV-1 DNA Polymerase (Human herpesvirus 1, UniProt P04293); experiment: In vitro DNA synthesis by HSV-1 DNA polymerase ([3H]dAMP incorporation); format: biochemical, Herpes simplex virus type 1
Method: The relative in vitro DNA synthesis by HSV-1 DNA Polymerase using dCTP or MMdCTP as the rate limiting substrate was determined. The synthesis was followed by assaying an incorporation of tritium labelled dAMP.
+ unlabelled dNTP concentration 10 μM
++ Radio labelled [^3 H]dAMP conc 0.2 μM
*One hundred percent activity represents 27355 cpm of [^3 H]dAMP
(§2) The number of pmoles of [^3 H] dAMP incorporated into control samples (`O`MMdCTP) was subtracted from pmoles of test samples. Other nucleotides,dATP, dTTP and dGTP were in excess (10 μm). Each assay was performed in triplicate.
(§3) ^+ unlabeled dNTP concentration (10 μM).
(§4) ^++ 0.2 μM of [^3 H]dATP was used in each assay.

HSV-1 DNA Polymerase [6] = molecular target: T1, HSV-1 DNA Polymerase; experiment: Kinetic analysis / inhibition of HSV-1 DNA polymerase; format: biochemical
Method: The inhibition of HSV-1 and human DNA polymerase alpha by MMdCTP was studied and the results shown graphically in FIG. 16. Assay conditions were specific for each enzyme and each assay was performed in triplicate.

[7] = molecular target: T2, human DNA polymerase alpha (Homo sapiens, UniProt P09884); experiment: In vitro DNA synthesis by human DNA polymerase alpha ([3H]dAMP incorporation); format: biochemical; details: human DNA polymerase alpha, FIG. 14
T2 sequence (P09884 1-1462): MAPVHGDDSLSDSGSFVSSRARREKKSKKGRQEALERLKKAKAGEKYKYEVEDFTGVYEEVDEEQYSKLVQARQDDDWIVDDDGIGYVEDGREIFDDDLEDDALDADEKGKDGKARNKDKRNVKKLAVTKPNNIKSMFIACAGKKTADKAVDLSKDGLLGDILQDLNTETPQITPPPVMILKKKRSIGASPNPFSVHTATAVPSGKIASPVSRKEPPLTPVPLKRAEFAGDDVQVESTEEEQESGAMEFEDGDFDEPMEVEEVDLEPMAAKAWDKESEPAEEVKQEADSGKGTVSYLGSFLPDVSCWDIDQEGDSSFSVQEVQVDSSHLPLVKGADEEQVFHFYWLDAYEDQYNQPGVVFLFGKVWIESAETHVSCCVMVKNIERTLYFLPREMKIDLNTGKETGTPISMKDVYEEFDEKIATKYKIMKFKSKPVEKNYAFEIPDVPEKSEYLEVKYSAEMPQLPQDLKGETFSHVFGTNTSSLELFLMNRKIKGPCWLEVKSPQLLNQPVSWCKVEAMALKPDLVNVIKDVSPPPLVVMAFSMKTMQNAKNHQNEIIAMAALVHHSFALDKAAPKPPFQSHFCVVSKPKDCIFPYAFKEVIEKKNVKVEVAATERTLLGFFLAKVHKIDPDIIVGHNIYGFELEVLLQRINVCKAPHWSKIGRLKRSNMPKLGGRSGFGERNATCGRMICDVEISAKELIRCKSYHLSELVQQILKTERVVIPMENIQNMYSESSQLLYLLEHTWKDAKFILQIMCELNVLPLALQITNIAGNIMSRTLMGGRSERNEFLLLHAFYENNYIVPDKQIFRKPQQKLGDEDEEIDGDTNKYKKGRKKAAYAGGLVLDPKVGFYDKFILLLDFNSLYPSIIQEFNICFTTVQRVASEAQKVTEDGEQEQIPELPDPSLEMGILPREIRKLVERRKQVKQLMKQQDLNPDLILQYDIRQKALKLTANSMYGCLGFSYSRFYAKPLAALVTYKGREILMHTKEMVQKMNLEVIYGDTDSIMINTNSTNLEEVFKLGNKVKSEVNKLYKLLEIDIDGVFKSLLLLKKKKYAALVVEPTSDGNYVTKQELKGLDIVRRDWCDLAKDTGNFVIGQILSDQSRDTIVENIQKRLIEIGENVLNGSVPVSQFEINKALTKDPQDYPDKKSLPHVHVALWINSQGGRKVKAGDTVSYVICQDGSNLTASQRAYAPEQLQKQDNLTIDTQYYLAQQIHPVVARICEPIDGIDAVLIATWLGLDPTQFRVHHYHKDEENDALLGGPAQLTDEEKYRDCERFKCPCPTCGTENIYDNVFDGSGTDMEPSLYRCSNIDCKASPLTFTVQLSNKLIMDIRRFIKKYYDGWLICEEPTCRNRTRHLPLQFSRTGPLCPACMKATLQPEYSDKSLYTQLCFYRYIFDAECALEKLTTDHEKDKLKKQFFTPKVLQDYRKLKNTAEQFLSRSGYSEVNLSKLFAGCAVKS
Method: A comparison of in vitro DNA synthesis by viral and cellular DNA polymerases with MMdCTP as an alternative substrate. The results are shown graphically in FIG. 14 and compare HSV-1 DNA polymerase and human DNA polymerase alpha activity.
as §2, §3, §4

[8] = Table 8, HSV-1 KOS infected Vero cells, 10 PFU/cell, treatment 7 hours, ± S.E.
[9] = Table 9, HSV-1 KOS infected, H4 dUrd pre-incubated 2 hours then removed, fresh MEM or MMdCyd

T1 sequence (P04293 whole entry): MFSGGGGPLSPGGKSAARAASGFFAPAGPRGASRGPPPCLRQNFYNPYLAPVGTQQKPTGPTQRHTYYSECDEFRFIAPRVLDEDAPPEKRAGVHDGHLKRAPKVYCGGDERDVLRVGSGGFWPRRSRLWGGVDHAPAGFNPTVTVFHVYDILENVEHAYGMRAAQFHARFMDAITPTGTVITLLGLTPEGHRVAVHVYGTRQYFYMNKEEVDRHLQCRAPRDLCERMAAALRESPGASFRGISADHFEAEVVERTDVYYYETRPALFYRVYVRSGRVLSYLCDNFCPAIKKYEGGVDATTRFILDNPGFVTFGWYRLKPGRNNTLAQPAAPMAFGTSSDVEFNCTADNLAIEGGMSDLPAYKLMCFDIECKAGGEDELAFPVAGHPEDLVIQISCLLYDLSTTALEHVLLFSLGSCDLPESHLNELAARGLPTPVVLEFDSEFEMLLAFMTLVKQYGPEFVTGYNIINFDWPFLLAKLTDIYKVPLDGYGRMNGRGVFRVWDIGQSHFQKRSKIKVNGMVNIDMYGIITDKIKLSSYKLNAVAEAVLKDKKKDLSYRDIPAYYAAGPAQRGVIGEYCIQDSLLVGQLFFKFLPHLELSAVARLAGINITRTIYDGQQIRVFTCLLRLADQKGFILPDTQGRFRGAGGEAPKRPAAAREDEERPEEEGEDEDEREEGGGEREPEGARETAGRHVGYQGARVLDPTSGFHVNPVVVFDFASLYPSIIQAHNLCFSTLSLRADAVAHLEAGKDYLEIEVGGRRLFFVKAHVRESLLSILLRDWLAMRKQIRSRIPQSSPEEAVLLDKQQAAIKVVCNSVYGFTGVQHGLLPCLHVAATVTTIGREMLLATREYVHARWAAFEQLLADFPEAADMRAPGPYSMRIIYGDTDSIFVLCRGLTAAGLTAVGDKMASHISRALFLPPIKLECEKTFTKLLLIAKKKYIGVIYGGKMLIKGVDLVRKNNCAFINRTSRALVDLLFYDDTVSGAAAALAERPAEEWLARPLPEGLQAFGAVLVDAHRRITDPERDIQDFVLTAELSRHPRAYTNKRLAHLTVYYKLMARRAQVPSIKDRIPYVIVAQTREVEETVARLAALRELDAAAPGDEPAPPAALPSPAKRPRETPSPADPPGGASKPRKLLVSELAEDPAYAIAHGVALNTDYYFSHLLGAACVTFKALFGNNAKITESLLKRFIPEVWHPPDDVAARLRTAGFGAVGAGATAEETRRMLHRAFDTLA

## O=C1NC(O)CCN1[C@H]1C[C@H](O)[C@@H](CO)O1 (stereo partly drawn) [H4 dUrd, tetrahydro-2'-deoxyuridine]
In vitro
  viability at 1000 µM: 100%
HSV-1, KOS [1]
  antiviral activity of H4 dUrd: did not exhibit antiviral activity; also recorded: no antiviral activity
[2]
  dATP pool: 17.6 ± 1.28 .rho.moles/10^6 cells
  dCTP pool: 30.8 ± 1.20 .rho.moles/10^6 cells
  dGTP pool: 32 ± 1.3 .rho.moles/10^6 cells
  dTTP pool: 27.5 ± 1.25 .rho.moles/10^6 cells
HSV-1, KOS [3]
  antiviral activity of H4 dUrd alone: did not exhibit antiviral activity
[4]; [8]
  dATP pool: 94.7 ± 2.06 .rho.moles/10^6 cells
  dCTP pool: 326 ± 12.6 .rho.moles/10^6 cells
  dGTP pool: 101.3 ± 2.28 .rho.moles/10^6 cells
  dTTP pool: 0.5 ± 0.34 .rho.moles/10^6 cells
[4]; [9]
  dATP pool: 119.4 ± 3.1 .rho.moles/10^6 cells
  dCTP pool: 312 ± 10.1 .rho.moles/10^6 cells
  dGTP pool: 141 ± 2.6 .rho.moles/10^6 cells
  dTTP pool: 2 ± 0.41 .rho.moles/10^6 cells

## COCc1cn([C@H]2C[C@H](O)[C@@H](COP(=O)(O)OP(=O)(O)OP(=O)(O)O)O2)c(=O)nc1N [MMdCTP, 5-methoxymethyl-2'-deoxycytidine triphosphate]
HSV-1 DNA Polymerase [5]; HSV-1 DNA polymerase, FIG. 14
  utilization as alternative substrate ([^3 H] dAMP incorporation): readily utilized
HSV-1 DNA Polymerase [5]; HSV-1 induced DNA polymerase
  preference as substrate versus dCTP: preferred as a substrate to dCTP
HSV-1 DNA Polymerase [6]
  Ki: 380 nM
HSV-1 DNA Polymerase [6]; FIG. 16, HSV-1 compared with human DNA polymerase alpha
  inhibition of HSV-1 versus human DNA polymerase alpha: clear difference in effect
HSV-1 DNA Polymerase [6]; Km of dCTP / Ki of MMdCTP
  Km/Ki: 0.4
[7]
  utilization as alternative substrate ([^3 H] dAMP incorporation): little used
